Experiments:
[1] = Metabolic stability in rat liver microsomes; assay type: in vitro ADME; conditions: male, pH 7.4, 10 μM compound, read-out: intrinsic clearance
Procedure: Metabolic stability of compounds 27 and 28 was analyzed using incubation systems composed of tested compound (10 μM), rat liver microsomes (RLMs, microsomes from rat male liver, pooled; 0.4 mg/mL; Sigma-Aldrich), NADPH-regenerating system (NADP+, glucose-6-phosphate, and glucose-6-phosphate dehydrogenase in 100 mM potassium buffer, pH 7.4; all from Sigma-Aldrich) and potassium buffer, pH 7.4. […] First, all samples containing incubation mixture (without NADPH-regenerating system) were preincubated in thermoblock at 37 °C for 10 min. Then reaction was initiated by the addition of NADPH-regenerating system. In control samples NADPH-regenerating system was replaced with potassium buffer. Probes were incubated for 30 and 60 min at 37 °C. After addition of internal standard (pentoxifylline, 10 μM) biotransformation process was stopped by addition of perchloric acid. Next, samples were centrifuged and supernatants were analyzed using UPLC/MS (Waters Corporation, Milford, MA). All experiments were run in duplicates. Half-life time was evaluated using nonlinear regression model using GraphPad Prism software, and intrinsic clearance was calculated from the equation Clint = (volume of incubation [μL]/protein in the incubation [mg])0.693/t1/2.[46]

5-HT1AR = biological target: T1, 5-HT1AR (Homo sapiens, UniProt P08908); assay: [3H]-8-OH-DPAT radioligand binding assay, HEK293 cells; conditions: mean of three experiments
T1 construct: expressed in transfected cells
T1 sequence (P08908 1-422): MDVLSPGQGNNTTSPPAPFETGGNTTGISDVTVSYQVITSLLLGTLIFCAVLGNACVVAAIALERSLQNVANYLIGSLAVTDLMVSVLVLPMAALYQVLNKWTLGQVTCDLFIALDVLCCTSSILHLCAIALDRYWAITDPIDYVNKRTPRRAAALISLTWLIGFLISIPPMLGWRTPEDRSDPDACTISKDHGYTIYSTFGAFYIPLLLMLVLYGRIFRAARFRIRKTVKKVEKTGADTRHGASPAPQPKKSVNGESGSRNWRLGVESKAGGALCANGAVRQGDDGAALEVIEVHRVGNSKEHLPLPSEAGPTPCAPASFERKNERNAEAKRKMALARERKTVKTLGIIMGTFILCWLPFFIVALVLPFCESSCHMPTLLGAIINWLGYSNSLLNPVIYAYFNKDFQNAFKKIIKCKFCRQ
Procedure: (§1) All experiments were carried out according to the previously published procedures.[41]−[43] HEK293 cells stably expressing human 5-HT1A, 5-HT6, 5-HT7b, and D2L receptors (prepared with the use of Lipofectamine 2000) or CHO-K1 cells with plasmid containing the sequence coding for the human serotonin 5-HT2A receptor (PerkinElmer) were maintained at 37 °C in a humidified atmosphere containing 5% CO2 and grown in Dulbecco’s modified Eagle’s medium containing 10% dialyzed fetal bovine serum and 500 μg/mL G418 sulfate. For membrane preparation, cells were cultured in 150 cm^2 flasks, grown to 90% confluence, washed twice with prewarmed to 37 °C phosphate buffered saline (PBS), and centrifuged (200g) in PBS containing 0.1 mM EDTA and 1 mM dithiothreitol. Prior to membrane preparation, pellets were stored at −80 °C. Cell pellets were thawed and homogenized in 10 volumes of assay buffer using an Ultra Turrax tissue homogenizer and centrifuged twice at 35 000g for 15 min at 4 °C, with incubation for 15 min at 37 °C between the centrifugations. The composition of the assay buffers was experimentally selected to achieve the maximum signal window (more details in Supporting Information). All assays were carried out in a total volume of 200 μL in 96-well plates for 1 h at 37 °C except 5-HT1AR and 5-HT2AR which were incubated at room temperature and 27 °C, respectively. The process of equilibration was terminated by rapid filtration through Unifilter plates with a 96-well cell harvester, and radioactivity retained on the filters was quantified on a Microbeta plate reader (PerkinElmer, USA). For displacement studies the assay samples contained the following as radioligands (PerkinElmer, USA): 2.5 nM [^3H]-8-OH-DPAT (135.2 Ci/mmol) for 5-HT1AR; 1 nM [^3H]-ketanserin (53.4 Ci/mmol) for 5-HT2AR; 2 nM [^3H]-LSD (83.6 Ci/mmol) for 5-HT6R; 0.8 nM [^3H]-5-CT (39.2 Ci/mmol) for 5-HT7R or 2.5 nM [^3H]-raclopride (76.0 Ci/mmol) for D2LR. Nonspecific binding was defined in the presence of 10 μM 5-HT in 5-HT1AR and 5-HT7R binding experiments, whereas 20 μM mianserin, 10 μM methiothepine, and 10 μM haloperidol were used in 5-HT2AR, 5-HT6R, and D2LR assays, respectively. Each compound was tested in triplicate at seven concentrations (10^–10–10^–4 M). The inhibition constants (Ki) were calculated from the Cheng–Prusoff equation.[44]

5-HT6R = 5-HT6R (Homo sapiens, UniProt P50406); assay: [3H]-LSD radioligand binding assay, HEK293 cells stably expressing human 5-HT6R; set-up: expressed in transfected cells; conditions: mean of three independent experiments
Sequence of 5-HT6R (P50406 whole entry, the tested form may be a part): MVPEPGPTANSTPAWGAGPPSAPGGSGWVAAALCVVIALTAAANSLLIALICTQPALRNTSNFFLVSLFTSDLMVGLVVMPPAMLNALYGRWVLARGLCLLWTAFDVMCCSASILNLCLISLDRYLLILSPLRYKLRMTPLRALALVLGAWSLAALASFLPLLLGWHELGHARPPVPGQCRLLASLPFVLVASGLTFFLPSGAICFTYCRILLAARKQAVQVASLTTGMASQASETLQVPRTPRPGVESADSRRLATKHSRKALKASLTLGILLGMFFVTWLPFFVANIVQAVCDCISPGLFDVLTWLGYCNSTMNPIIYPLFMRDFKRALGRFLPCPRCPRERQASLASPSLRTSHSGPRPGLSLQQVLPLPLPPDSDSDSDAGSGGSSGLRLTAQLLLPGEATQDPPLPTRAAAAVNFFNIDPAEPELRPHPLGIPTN
Procedure: Final compounds were evaluated in the [^3H]-LSD binding assay using HEK293 cells with stable expression of human 5-HT6R. […] Because the fluorine atom might affect the affinity at target protein as well as physicochemical and pharmacokinetic properties of compound,[22] fluorine substitution at the 2-phenyl ring was applied. […] The analysis of the binding mode of 18 and 28 (Figure 2A) confirmed that the 2-phenyl moiety is placed in the hydrophobic cavity between transmembrane domains (TMs) 4–6.
as §1

5-HT2AR = biological target: T2, 5-HT2AR (Homo sapiens, UniProt P28223); assay: [3H]-ketanserin radioligand binding assay, CHO-K1 cells; conditions: mean of three experiments
T2 construct: host or cells: CHO-K1
T2 sequence (P28223 whole entry): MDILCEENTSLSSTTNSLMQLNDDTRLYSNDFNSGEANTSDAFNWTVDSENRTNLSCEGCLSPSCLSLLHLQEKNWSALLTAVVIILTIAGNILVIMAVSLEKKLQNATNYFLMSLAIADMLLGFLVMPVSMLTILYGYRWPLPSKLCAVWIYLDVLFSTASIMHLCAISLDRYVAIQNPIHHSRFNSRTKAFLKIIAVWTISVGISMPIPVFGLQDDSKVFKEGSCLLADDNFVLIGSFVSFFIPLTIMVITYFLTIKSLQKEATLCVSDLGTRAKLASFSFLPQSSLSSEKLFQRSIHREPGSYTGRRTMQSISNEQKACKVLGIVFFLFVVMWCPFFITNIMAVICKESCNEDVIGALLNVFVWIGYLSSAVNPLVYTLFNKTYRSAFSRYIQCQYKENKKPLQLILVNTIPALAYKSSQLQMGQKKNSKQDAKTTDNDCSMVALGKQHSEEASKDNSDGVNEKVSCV

| SMILES | microsomal CLint at 10 μM [1] [µL/min/mg] | Ki (5-HT1AR) [µM] | Ki (5-HT6R) [µM] | Ki (5-HT2AR) [µM] |
| --- | --- | --- | --- | --- |
| O=C(N[C@H]1CCNC1)c1ccn(S(=O)(=O)c2cccc(Cl)c2)c1-c1ccc(F)cc1 [Compound 28, (S)-2-(4-Fluorophenyl)-1-[(3-chlorophenyl)sulfonyl]-N-(pyrrolidin-3-yl)-1H-pyrrole-3-carboxamide] | 1.03 | 61.5 | 0.022 | 8.57 |
| O=C(N[C@@H]1CCNC1)c1ccn(S(=O)(=O)c2cccc(Cl)c2)c1-c1ccc(F)cc1 [Compound 27, (R)-2-(4-Fluorophenyl)-1-[(3-chlorophenyl)sulfonyl]-N-(pyrrolidin-3-yl)-1H-pyrrole-3-carboxamide] | 0.82 | 53.7 | 0.03 | 13.5 |
